Measured values from patent publication US11382985B2, “Anti-tumour immune responses to modified self-epitopes” (Scancell Limited, priority 2015, dated 2022).
Square brackets hold non-standard residues; d marks the D form. Ends that are not written are not given here. Cit = NC(=O)NCCC[C@H](N)C(=O)O

Legend:
splenocytes [1] = experiment: Screening of citrullinated Enolase peptide pools, ex vivo IFNγ Elispot, C57BL/6 mice; format: in vivo, C57BL/6 mouse; conditions: single immunisation with pool of 4-6 human citrullinated peptides, 20 μg each, CpG/MPLA, day 14, label = peptide used for restimulation
Method: (§1) C57BL/6 mice (Charles River, UK), HLA-DR4 mice (Taconic, USA), HHDII/DR1 mice (Pasteur institute, France) and the HHD/HLA-DP4 transgenic strain of mouse as described in patent WO2013/017545 A1 (EMMA repository, France) were used, aged between 8 and 12 weeks, and cared for by the staff at Nottingham Trent University. All work was carried out under a Home Office project licence. Peptides were dissolved in PBS to 1 mg/ml and then emulsified (a series of dilutions) with different adjuvants: CpG and MPLA 6 μg/mouse of each (Invivogen, UK), Incomplete Freund's 50 μl/mouse (Sigma, UK), poly I:C 10 μg/mouse (Invivogen, UK), Imiquimod 25 μg/mouse (Invivogen, UK) and GMCSF 10 μg/mouse (Peprotech, UK). Peptides (25 μg/mouse) were injected subcutaneously at the base of the tail. DNA (1 μg/mouse) was coated onto 1.0 μm gold particles (BioRad, Hemel Hempstead, UK) using the manufacturer's instructions and administered intradermally by genegun (BioRad). Homspera (10 nM/mouse) (PeptideSynthetics, UK) was injected intradermally with genegun immunisation. Mice were immunized at either day 0 for peptide immunisation or days, 0 and 7 for genegun immunisation, unless otherwise stated. Spleens were removed for analysis at day 14 for peptide and day 20 for peptide or genegun immunisation unless stated otherwise.
(§2) Elispot assays were performed using murine IFNγ, IL-17 and IL-10 capture and detection reagents according to the manufacturer's instructions (Mabtech, Sweden). In brief, anti-IFNγ, IL-17 and IL-10 antibodies were coated onto wells of 96-well Immobilin-P plate. Synthetic peptides (at a variety of concentrations) and 5×10^5 per well splenocytes were added to the wells of the plate in triplicate. Tumour target cells were added where relevant at 5×10^4/well in triplicate and plates incubated for 40 hrs at 37° C. After incubation, captured IFN and IL-10 were detected by biotinylated anti-IFNγ and IL-10 antibodies and developed with a streptavidin alkaline phosphatase and chromogenic substrate. Spots were analysed and counted using an automated plate reader (Cellular Technologies Ltd).
(§3) Screening was performed to identify potential citrullinated Enolase epitopes in mice. Mice were immunised with pools of 4-6 human citrullinated peptides. […] Each pool was administered as a single immunisation containing 20 μg of each peptide and CpG/MPLA as an adjuvant. After 14 days the mice were culled and the immune responses to each peptide within the immunising pool were assessed by ex vivo Elispot (FIG. 2). In addition, the splenocytes were screened against the murine equivalent sequences. We have previously shown that citrullinated peptides can induce responses in the transgenic DR4 mouse strain. Given that different mouse strains have different MHC repertoires a number of strains were used for screening. Peptide responses were assessed in C57BL/6 mice as well as transgenic strains expressing human DR4 or HHD/DR1 in a C57BL/6 background (see materials and methods).

splenocytes [2] = experiment: Peptide immunisation and ex vivo Elispot, DR4 mice; format: in vivo, HLA-DR4 transgenic mouse; conditions: for IFNγ response to the human sequence / IFNγ response to the mouse sequence: single immunisation of the human citrullinated peptide; for IFNγ response to 15mer peptide spanning 241-260: label = 15mer used for restimulation
Method: as §1, §2

splenocytes [3] = experiment: Peptide immunisation and ex vivo Elispot, C57Bl/6 mice; format: in vivo, C57Bl/6 mouse; conditions: C57Bl/6 mice immunised with the human citrullinated peptide
Method: as §1, §2

splenocytes [4] = experiment: Screening of citrullinated Enolase peptide pools, ex vivo IFNγ Elispot, HHD/DR1 mice; format: in vivo, transgenic HHD/DR1 mouse; conditions: single immunisation with pool of 4-6 human citrullinated peptides, 20 μg each, CpG/MPLA, day 14, label = peptide used for restimulation
Method: as §1, §2, §3

splenocytes [5] = experiment: Peptide immunisation and ex vivo Elispot, DR1/HHD mice; format: in vivo, HHD/DR1 transgenic mouse; conditions: single immunisation of the human citrullinated peptide
Method: as §1, §2

splenocytes [6] = experiment: Screening of citrullinated Enolase peptide pools, ex vivo IFNγ Elispot, DR4 mice; format: in vivo, transgenic DR4 mouse; conditions: single immunisation with pool of 4-6 human citrullinated peptides, 20 μg each, CpG/MPLA, day 14, label = peptide used for restimulation
Method: C57BL/6 mice (Charles River, UK), HLA-DR4 mice (Taconic, USA), HHDII/DR1 mice (Pasteur institute, France) and the HHD/HLA-DP4 transgenic strain of mouse as described in patent WO2013/017545 A1 (EMMA repository, France) were used, aged between 8 and 12 weeks, and cared for by the staff at Nottingham Trent University. All work was carried out under a Home Office project licence. Peptides were dissolved in PBS to 1 mg/ml and then emulsified (a series of dilutions) with different adjuvants: CpG and MPLA 6 μg/mouse of each (Invivogen, UK), Incomplete Freund's 50 μl/mouse (Sigma, UK), poly I:C 10 μg/mouse (Invivogen, UK), Imiquimod 25 μg/mouse (Invivogen, UK) and GMCSF 10 μg/mouse (Peprotech, UK). […]
Elispot assays were performed using murine IFNγ, IL-17 and IL-10 capture and detection reagents according to the manufacturer's instructions (Mabtech, Sweden). […] After incubation, captured IFN and IL-10 were detected by biotinylated anti-IFNγ and IL-10 antibodies and developed with a streptavidin alkaline phosphatase and chromogenic substrate. Spots were analysed and counted using an automated plate reader (Cellular Technologies Ltd).
Screening was performed to identify potential citrullinated Enolase epitopes in mice. […] After 14 days the mice were culled and the immune responses to each peptide within the immunising pool were assessed by ex vivo Elispot (FIG. 2). […]

splenocytes [7] = experiment: Peptide immunisation and ex vivo Elispot, DP4 mice; format: in vivo, HHD/HLA-DP4 transgenic mouse
Method: as §1, §2

[8] = DR4 mice immunised with human 241cit

Q: With FKSPDDPS-CIT-YITPDQLADLY [mouse 261cit] as the substance, how does the “IFNγ response to peptide compared to media” value (splenocytes [1]) read?
A: not

Q: Which “IFNγ response to peptide compared to media” value (splenocytes [1]) does the source give for “EVDLFTSKGLF-CIT-AAVPSGAS [Enolase 21cit]” here?
A: significant response

Q: And the “IFNγ response to the human sequence” value (splenocytes [2]; DR4 mice)?
A: not

Q: And the “IFNγ response to the mouse sequence” value (splenocytes [2]; DR4 mice)?
A: low level but significant response

Q: And the “IFNγ response in presence of CD4 blocking antibody” value (splenocytes [3])?
A: efficiently blocked

Q: And the “IFNγ response in presence of CD8 blocking antibody” value (splenocytes [3])?
A: not

Q: What about the “IFNγ response to the citrullinated peptide” value (splenocytes [3]) of the same substance?
A: strong IFNγ responses

Q: Which results are given for “VGDDLTVTNPK-CIT-IAKAVNEK [Enolase 316cit]”?
A: IFNγ response to peptide compared to media (splenocytes [4]): significant response; IFNγ response to the human sequence (splenocytes [2]; DR4 mice): moderate response; IFNγ response to the mouse sequence (splenocytes [2]; DR4 mice): not; IFNγ response to the human sequence (splenocytes [5]): moderate response; IFNγ response to the mouse sequence (splenocytes [5]): not

Q: Which “IFNγ response to peptide compared to media” value (splenocytes [4]) does the source give for MSILRIHA-CIT-EIFDSRGNPTV [mouse 1cit] here?
A: did induce a response

Q: With “aa241-255: 15mer peptide spanning the Enolase 241-260 sequence (VIGMDVAASEFFRSG; UniProt P06733 241-255, looked up, fragment)” as the substance, how does the “IFNγ response to 15mer peptide spanning 241-260” value (splenocytes [2]; [8]) read?
A: stimulating specific responses

Q: How did the “IFNγ response to peptide compared to media” value (splenocytes [4]) turn out when VGDDLTVTNPK-CIT-IAKAASEK [mouse 316cit] was run?
A: not

Q: How did the “IFNγ response to peptide compared to media” value (splenocytes [4]) turn out when KGVPLY-CIT-HIADLAGNPEVIL [mouse 126cit] was run?
A: not

Q: What about the “IFNγ response to peptide compared to media” value (splenocytes [1]) of the same substance?
A: significant response

Q: With FKSPDDPS-CIT-YISPDQLADLY [human 261cit] as the substance, how does the “IFNγ response to peptide compared to media” value (splenocytes [1]) read?
A: significant response

Q: Which “IFNγ response to 15mer peptide spanning 241-260” value (splenocytes [2]; [8]) does the source give for “aa246-260: 15mer peptide spanning the Enolase 241-260 sequence (VAASEFFRSGKYDLD; UniProt P06733 246-260, looked up, fragment)” here?
A: no response

Q: For “VIGMDVAASEFY-CIT-SGKYDLD (VIGMDVAASEFY[Cit]SGKYDLD) [mouse 241cit]”, which “IFNγ response to peptide compared to media” value (splenocytes [6]) is on record?
A: significant response

Q: What about the “IFNγ response in presence of human MHC class II blocking antibody (L243)” value (splenocytes [2]; DR4 mice immunised with human 241cit, label = restimulating peptide) of the same substance?
A: significantly reduced

Q: What about the “time after immunisation at which IFNγ response is detectable” value (splenocytes [2]; DR4 mice, single dose in CpG/MPLA, sacrificed after 2, 6 or 14 days) of the same substance?
A: 2 days

Q: And the “IFNγ response compared to the wild type peptides” value (splenocytes [7]; DP4 mice, three doses of human Enolase 241cit, label = restimulating peptide)?
A: increased IFNγ responses

Q: And the “IFNγ responses to citrullinated and wildtype peptide” value (splenocytes [7]; DP4 transgenic mice immunised with the murine peptide, three doses)?
A: specific to the citrullinated peptide but not the wildtype

Q: With EVDLYTAKGLF-CIT-AAVPSGAS [mouse 21cit] as the substance, how does the “IFNγ response to peptide compared to media” value (splenocytes [1]) read?
A: not

Q: Which “IFN response to the equivalent murine sequence” value (splenocytes [3]) does the source give for IFDScitGNPTVEVDLF [enolase 11cit] here?
A: cross reacted

Q: And the “IFNγ response in presence of CD4 blocking antibody” value (splenocytes [3])?
A: abrogated the response

Q: And the “IFNγ response in presence of CD8 blocking antibody” value (splenocytes [3])?
A: no effect

Q: What about the “IFNγ response to the citrullinated peptide” value (splenocytes [3]) of the same substance?
A: IFN responses

Q: And the “IFNγ response to the wt peptide” value (splenocytes [3])?
A: minimal reactivity

Q: And the “IL-10 response to the citrullinated peptide” value (splenocytes [3])?
A: No IL-10 responses

Q: “KGVPLY-CIT-HIADLAGNSEVIL [Enolase 126cit]” was tested. Which “IFNγ response to peptide compared to media” value (splenocytes [4]) did it give?
A: significant response

Q: And the “IFNγ response to peptide compared to media” value (splenocytes [1])?
A: not

Q: What about the “IFNγ response to the human sequence” value (splenocytes [2]; DR4 mice) of the same substance?
A: low level significant response

Q: What about the “IFNγ response to the human sequence” value (splenocytes [5]) of the same substance?
A: not

Q: With MSILKIHA-CIT-EIFDSRGNPTV [Enolase 1-20] as the substance, how does the “IFNγ response to peptide compared to media” value (splenocytes [4]) read?
A: did not induced a significant response
